Data published in patent US20230227547A1, “ANTIBODY-PAYLOAD CONJUGATES WITH ENHANCED DELIVERY DOMAIN AND USES THEREOF” (IPROGEN BIOTECH INC., priority 2019, published 2023).

Key:
LnCap = assay: Delivery assay, Goat anti-human IgG-AlexaFluor 488 fluorescence microscopy, LnCap; format: cell-based; parameters: key to Delivery efficiency of mAb (i.e., mAb): +++: Strong Alexa Fluor 488 (cyan/green) fluorescent intensity; ++: Medium level of Alexa Fluor 488 (cyan/green) fluorescent intensity; +: Weak, but noticeable Alexa Fluor 488 (cyan/green) fluorescent intensity; -: No signal; conditions: Target cell LnCap
Description: (§1) Delivery assay. […] The culturing media containing the unbound antibodies were removed, and the MDA-MB-468 cells were washed with PBS. The adherent cells were treated with trypsin at 37 degree C for 1-2 minutes, neutralized in FACS buffer (2% v/v FBS, 2 mM EDTA, 0.05% w/v sodium azide in PBS), and transferred to FACS tubes on ice. The delivery of antibodies to cells was quantitated by measuring the red fluorescence intensity (i.e., PE-Texas Red color channel in the FACS detector) emitted fromZ-RFP bound to antibody. […] At the end of incubation, the adherent target cells were washed twice with ice-cold PBS, fixed with 2% (w/v) formaldehyde in PBS at room temperature for 15 minutes, and washed twice with PBS at room temperature. The fixed adherent target cells were then permeabilized with 0.05% (v/v) Tween-20 in PBS at room temperature for 15 minutes. The permeabilized cells were then incubated with 5% (v/v) FBS, 0.05% (v/v) Tween-20 in PBS at 37 degree Celsius incubator for 30 minutes. The secondary antibody, Goat anti-human IgG-AlexaFluor 488, was added to 5 ug/ml in 5% (v/v) FBS, 0.05% (v/v) Tween-20 in PBS, and incubated with the treated target cells at 37 degree Celsius incubator for 30 minutes. After incubation, the labelled cells were washed twice with PBS, and stored in storage buffer [5% (v/v) FBS in PBS] at 4 degree Celsius until fluorescence microscope imaging. The delivery of mAb and mAb-LL37 were determined qualitatively by estimating the green fluorescence intensity emitted from the AlexFluor488-labelled secondary antibody bound to mAb or mAb-LL37. […] However, Ramos [NT] No. ATCC CRL-1596, lot#70016960) was grown in suspension culture (i.e., in contrast to adherent cells), and the modification to the methods involves simply harvesting cells from the shaking culture flask for incubation with antibodies (or LL37-linked antibodies), and frequently pelleting down the target cells in the V-bottom 96-well polypropylene plate for downstream processes of PBS washing, fixing, permeabilizing, blocking, and the secondary antibody labelling. The secondary anti-human IgG-AlexaFluor488 labelled target cells were washed and resuspended in PBS, and transferred to the clear polystyrene 48-well plates for fluorescence microscope imaging.

T47D cells [1] = assay: Anti-HER2 mAb delivery efficiency using LL37-derived peptide constructs; format: cell-based, human; conditions: for Delivery efficiency: peptide conjugated to anti-HER2 mAb light chain, 100 nM Ab, Z-GFP (PEP#6, 35-43) or Goat anti-human IgG-AlexaFluor 488 (PEP#6, 47-94) fluorescence microscopy; for delivery enhancement (in words): peptide conjugated to anti-HER2 mAb
Description: LL37 and LL37-derived peptides were produced synthetically with two additional N-terminal glycine residues (e.g. as shown in SEQ ID NO:2 compared to SEQ ID NO: 1) to enable the sortase reaction. The LL37-derived peptides (PEP#35 to #43, SEQ ID NOs: 13-21) were all dissolved at 10 mg/ml in phosphate buffer saline (PBS) at room temperature, sterile-filtered, and stored at -20° C. freezer. PEP#48 (SEQ ID: 74), PEP#49 (SEQ ID No: 75), and PEP#60 (SEQ ID NO: 105) were dissolved in 20% (v/v) acetonitrile in PBS. PEP#47 (SEQ ID NO: 96), PEP#86 (SEQ ID NO: 78), PEP#98 (SEQ ID NO: 79), PEP#99 (SEQ ID NO: 80), PEP#102 (SEQ ID NO: 82), and PEP#104 (SEQ ID NO: 84) were dissolved in DMSO. PEP#50 (SEQ ID No: 76), PEP#51 (SEQ ID No: 97), PEP#55 (SEQ ID No: 77), PEP#58 (SEQ ID No: 103), PEP#59 (SEQ ID No: 104), PEP#61 (SEQ ID No: 106), PEP#62 (SEQ ID No: 107), PEP#63 (SEQ ID No: 108), PEP#64 (SEQ ID No: 109), PEP#66 (SEQ ID No: 110), and PEP#94 (SEQ ID No: 35) were all dissolved in PBS. […] The reaction was incubated inside a 37° C. incubator for 16 hours, and then EDTA (pH 7.5) was added to 10 mM in the reaction mixture to chelate calcium and stop the reaction.
Delivery assay: The following delivery assay method was used on the anti-HER2 mAbs conjugated to the PEP#6, #35, #36, #37, #38, #39, #40, #41, #42, and #43 described in Table 7. […] The plates were then removed from the incubator, and the culturing media was removed from the adherent cells. The adherent cells were washed gently with an equal volume of ice-cold PBS. Then, the PBS wash was replaced 250 µl of fresh PBS for fluorescence microscope imaging.
At the end of incubation, the adherent target cells were washed twice with ice-cold PBS, fixed with 2% (w/v) formaldehyde in PBS at room temperature for 15 minutes, and washed twice with PBS at room temperature. The fixed adherent target cells were then permeabilized with 0.05% (v/v) Tween-20 in PBS at room temperature for 15 minutes. The permeabilized cells were then incubated with 5% (v/v) FBS, 0.05% (v/v) Tween-20 in PBS at 37 degree Celsius incubator for 30 minutes. The secondary antibody, Goat anti-human IgG-AlexaFluor 488, was added to 5 ug/ml in 5% (v/v) FBS, 0.05% (v/v) Tween-20 in PBS, and incubated with the treated target cells at 37 degree Celsius incubator for 30 minutes. After incubation, the labelled cells were washed twice with PBS, and stored in storage buffer [5% (v/v) FBS in PBS] at 4 degree Celsius until fluorescence microscope imaging. The delivery of mAb and mAb-LL37-derived peptides were determined qualitatively by estimating the green fluorescence intensity emitted from the AlexFluor488-labelled secondary antibody bound to mAb or mAb-LL37-derived peptides.

T47D cells [2] = assay: Cell viability assay with XTT, T47D; format: cell-based, human; conditions: XTT (Taxol ADCs: 3 hours)
Description: The cell assay was done by treating/incubating the T47D cells with antibody drug conjugates for 3 hours in the 37 degree C tissue culture incubator. After treatment, cell viability was determined by XTT assay as described above.
(§2) After treatment, cell viability was determined by XTT assay as described above.

OVCAR3 = assay: Delivery assay, Goat anti-human IgG-AlexaFluor 488 fluorescence microscopy, OVCAR3; format: cell-based; parameters: key to Delivery efficiency of mAb (i.e., mAb): +++: Strong Alexa Fluor 488 (cyan/green) fluorescent intensity; ++: Medium level of Alexa Fluor 488 (cyan/green) fluorescent intensity; +: Weak, but noticeable Alexa Fluor 488 (cyan/green) fluorescent intensity; -: No signal; conditions: Target cell OVCAR3; for Delivery enhancement: mAb-LL37 vs mAb
Description: as §1, with “No. ATCC CRL-1596, lot#70016960) was grown in suspension culture (i.e., in contrast to adherent cells), and the modification to the methods involves simply harvesting cells from the shaking culture flask for incubation with antibodies (or LL37-linked antibodies), and frequently pelleting down the target cells in the V-bottom 96-well polypropylene plate for downstream processes of PBS washing, fixing, permeabilizing, blocking, and the secondary antibody labelling.” left out

RT4v6 = assay: Delivery assay, Goat anti-human IgG-AlexaFluor 488 fluorescence microscopy, RT4v6; format: cell-based; conditions: Target cell RT4v6; mAb-LL37 vs mAb
Description: as §1, with “No. ATCC CRL-1596, lot#70016960) was grown in suspension culture (i.e., in contrast to adherent cells), and the modification to the methods involves simply harvesting cells from the shaking culture flask for incubation with antibodies (or LL37-linked antibodies), and frequently pelleting down the target cells in the V-bottom 96-well polypropylene plate for downstream processes of PBS washing, fixing, permeabilizing, blocking, and the secondary antibody labelling.” left out

CD20-positive RL cells = assay: Delivery assay, Z-RFP FACS, RL cells; format: cell-based, human; conditions: 0.5 nM, 5 nM, 50 nM; 30 minutes
Description: For FIG. 30 Panel D, Ofatumumab-LL37 was made from Ofatumumab (SEQ ID NOs: 40 and 41) in a sortase-catalyzed reaction to GG-LL37 peptide (SEQ ID NO: 2), and purified on Protein A chromatography. For cell delivery assay, Ofatumumab/Ofatumumab-LL37 and equimolar equimolar number of Z-RFP were added to RL cells at described final concentration (i.e., 0.5 nM, 5 nM, and 50 nM) and incubated for 30 minutes. The liquid suspension culture was gently spun in a microcentrifuge at 2000 rpm for 4 minutes, and the clear supernatant was removed, and the cell pellet was washed in PBS and resuspended in FACS buffer (1XPBS, 2% FBS, 1 mM EDTA, 0.02% sodium azide) for analysis by FACS (Texas Red channel).

RT4V6 cells = assay: Cell viability assay with XTT, RT4V6; format: cell-based, human; conditions: 72 hours treatment
Description: Cell viability assay with XTT. On day 1, cells (RT4V6, Neuro2A) were seeded at about 0.02 to 0.025 million cells per ml concentration and incubated overnight in the 37° C. incubator. […] XTT and PMS solutions were freshly prepared immediately before the assay, and were used right away. XTT/PMS were added to the treated cells to start the XTT reaction. […] Spectral absorbance was measured at 475 nm (XTT) and 660 nm (background), and viability calculated from the spectral absorbance difference at 475 nm and 660 nm.
Cell assay was done by treating/incubating the RT4V6 cells with antibody drug conjugates for 72 hours in the 37 degree C tissue culture incubator. After treatment, cell viability was determined by XTT assay as described above.
The cell assay was done by treating/incubating the RT4V6 cells with antibody drug conjugates for 72 hours in the 37 degree C tissue culture incubator. After treatment, cell viability was determined by XTT assay as described above.
as §2
(§3) Cell viability assay with XTT. […] After treatment, cell viability was determined by XTT assay as described above.

OVCAR3 cells = assay: Cell viability assay with XTT, OVCAR3; format: cell-based, human; conditions: 72 hours (FIG. 10: 24 hours) treatment
Description: Cell viability assay with XTT. On day 1, cells (OVCAR3) were seeded at about 0.02 to 0.025 million cells per ml concentration and incubated overnight in the 37 degree Celsius incubator. […] One set was incubated for 24 hours, and another set for 72 hours. On day 3, the set with 24 hours, the treatment were removed, and replaced with fresh growth media, and continued incubation for the next 48 hours (for the total of 72 hours). On day 5, the set with both 24 hours and 72 hours treatments were analyzed. […] XTT and PMS solutions were freshly prepared immediately before the assay, and were used right away. XTT/PMS were added to the treated cells to start the XTT reaction. […] Spectral absorbance was measured at 475 nm (XTT) and 660 nm (background), and viability calculated from the spectral absorbance difference at 475 nm and 660 nm.
The cell assay was done by treating/incubating the OVCAR3 cells with antibody drug conjugates for 3 hours in the 37 degree C tissue culture incubator. After treatment, cell viability was determined by XTT assay as described above.
as §2
Cell viability assay was carried out with XTT as as described above.
as §3

In the case of Citatuzumab [Anti-EpCAM, Citatuzumab], the “Delivery efficiency of mAb (i.e., mAb)” value (LnCap; 100 nM, 3 hours) is reported as “++” and the Delivery enhancement (LnCap; mAb-LL37 vs mAb) is reported as “YES”.
For GSIGKEFKRIVQRIKDFLR [PEP#66], the Delivery efficiency (T47D cells [1]) was “++ (Solid enhancement in delivery, but at lower efficiency than LL37)”.
“LLGDFFRKSKEKIGKEFKRIVQRIKDFLRNLVPRTESC [PEP#94]” was tested, and the Delivery efficiency (T47D cells [1]) was “+++ (Same as LL37)”.
With IGKEFKRIVQRIKDFLRNLVPRTES [PEP#36] the Delivery efficiency (T47D cells [1]) was “++ (Solid enhancement in delivery, but at lower efficiency than LL37)” and the “killing of T47D / cell viability (in words)” value (T47D cells [2]) was “enhanced the anti-HER2 mAb-MMAE drug conjugate to kill T47D cells”.
With “LLGDFFRASKEKIGKEFAAIVQAIKDFLANLVPATES [PEP#50]” the “delivery enhancement (in words)” value (T47D cells [1]) was “decrease in, but not abrogation of, delivery enhancement” and the Delivery efficiency (T47D cells [1]) was “+”.
EFKRIVQRIKDFLRNLVPRT [PEP#64] was tested, and the Delivery efficiency (T47D cells [1]) was “+”.
With “Lifastuzumab [Anti-NaPi2b, Lifastuzumab]” the “Delivery efficiency of mAb (i.e., mAb)” value (OVCAR3; 100 nM, 3 hours) was “+”, the Delivery enhancement (OVCAR3) was “YES” and the Delivery enhancement (OVCAR3; listed as lifastuzumab) was “significantly increases the delivery”. For the same substance, the Delivery enhancement (RT4v6) was “significantly increases the delivery”.
With IVQRIKDFLRNLVPRTES [PEP#38] the Delivery efficiency (T47D cells [1]) was “++ (Solid enhancement in delivery, but at lower efficiency than LL37)” and the “killing of T47D / cell viability (in words)” value (T47D cells [2]) was “enhanced the anti-HER2 mAb-MMAE drug conjugate to kill T47D cells”.
IGKEFKRIVQRI [PEP#40] was tested, and the Delivery efficiency (T47D cells [1]) was “+”.
In the case of Ofatumumab-LL37, the “targeted delivery (in words)” value (CD20-positive RL cells) is reported as “more efficient than anti-CD20 mAb (i.e., Ofatumumab) at targeted delivery”.
For MMWLL [PEP#47, reference compound], the “delivery enhancement (in words)” value (T47D cells [1]) was “confirmed to not enhance antibody delivery to target cells alone”.
“KEFKRIVQRIKDFLRGGGGSRLFDKIRQVIRKFEKG [PEP#55]” was tested, and the Delivery efficiency (T47D cells [1]) was “+++ (Same as LL37)”, the “killing of RT4V6 / cell viability (in words)” value (RT4V6 cells) was “strongly enhance ADC killing” and the “killing of OVCAR3 / cell viability (in words)” value (OVCAR3 cells) was “strongly enhance ADC killing”.
